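96-well plates; 48 h exposure; 5 concentrations. Endpoints by linear interpolation between flanking doses. Not reached: highest tested concentration assigned. Abbreviation: GI50, concentration required for 50% inhibition of growth.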 Activity calls are given as the source filed them. Cut-off read from the data, not from the text of the source: active = GI50 up to about 1.1 µM and inactive = higher.
Columns and labels:
Experiment in all cases: NCI-60 cell line screen, 48 h
[1] = test system: 786-0
[2] = test system: A549
[3] = test system: COLO 205
[4] = test system: DU-145
[5] = test system: EKVX
[6] = test system: HCC 2998
[7] = test system: HL-60
[8] = test system: Hs-578T
[9] = test system: M14
[10] = test system: MDA-MB-231
[11] = test system: MDA-MB-435
[12] = test system: MOLT-4
[13] = test system: Malme-3M
[14] = test system: NCI-H460
[15] = test system: OVCAR-5
[16] = test system: RXF 393
[17] = test system: SF-539
[18] = test system: SK-OV-3
[19] = test system: UACC-257
[20] = test system: SK-MEL-2

Cc1cc(O)c(C(C)C)cc1CN1CCCCC1
GI50 [1]: > 100 µM (inactive)
GI50 [2]: > 100 µM (inactive)
GI50 [3]: > 100 µM (inactive)
GI50 [4]: > 100 µM (inactive)
GI50 [5]: > 100 µM (inactive)
GI50 [6]: > 100 µM (inactive)
GI50 [7]: > 100 µM (inactive)
GI50 [8]: > 100 µM (inactive)
GI50 [9]: > 100 µM (inactive)
GI50 [10]: > 100 µM (inactive)
GI50 [11]: > 100 µM (inactive)
GI50 [12]: > 100 µM (inactive)
GI50 [13]: > 100 µM (inactive)
GI50 [14]: > 100 µM (inactive)
GI50 [15]: > 100 µM (inactive)
GI50 [16]: > 100 µM (inactive)
GI50 [17]: > 100 µM (inactive)
GI50 [18]: > 100 µM (inactive)
GI50 [19]: > 100 µM (inactive)

CC(=O)CC1(C)OC(N)=C(C#N)C1(C#N)C#N (stereo not drawn)
GI50 [1]: > 100 µM (inactive)
GI50 [2]: > 100 µM (inactive)
GI50 [3]: 45.9 µM (inactive)
GI50 [4]: > 100 µM (inactive)
GI50 [5]: > 100 µM (inactive)
GI50 [6]: > 100 µM (inactive)
GI50 [8]: > 100 µM (inactive)
GI50 [9]: > 100 µM (inactive)
GI50 [10]: > 100 µM (inactive)
GI50 [11]: > 100 µM (inactive)
GI50 [13]: 80 µM (inactive)
GI50 [15]: > 100 µM (inactive)
GI50 [16]: > 100 µM (inactive)
GI50 [17]: 86.1 µM (inactive)
GI50 [20]: > 100 µM (inactive)
GI50 [18]: > 100 µM (inactive)
GI50 [19]: > 100 µM (inactive)

CC(C)Oc1cc2c(cc1O)CC[C@@H]1[C@@H]2CC[C@]2(C)[C@@H](O)CC[C@@H]12
GI50 [1]: 4.65 µM (inactive)
GI50 [2]: 5.52 µM (inactive)
GI50 [3]: 20 µM (inactive)
GI50 [4]: 7.28 µM (inactive)
GI50 [5]: 12.7 µM (inactive)
GI50 [6]: 5.26 µM (inactive)
GI50 [7]: 1.71 µM (inactive)
GI50 [8]: 2.38 µM (inactive)
GI50 [9]: 3.79 µM (inactive)
GI50 [10]: 8.36 µM (inactive)
GI50 [11]: 0.687 µM (active)
GI50 [12]: 4.74 µM (inactive)
GI50 [13]: 3.82 µM (inactive)
GI50 [14]: 3.28 µM (inactive)
GI50 [15]: 27.5 µM (inactive)
GI50 [16]: 3.82 µM (inactive)
GI50 [17]: 2.42 µM (inactive)
GI50 [18]: 4.67 µM (inactive)
GI50 [19]: 3.99 µM (inactive)

S=C1c2ccccc2N=C(NC2CCCC2)C2CSCN12 (stereo not drawn)
GI50 [1]: > 100 µM (inactive)
GI50 [2]: > 100 µM (inactive)
GI50 [3]: > 100 µM (inactive)
GI50 [4]: > 100 µM (inactive)
GI50 [5]: 37.2 µM (inactive)
GI50 [6]: 65.6 µM (inactive)
GI50 [8]: 44.4 µM (inactive)
GI50 [9]: 91.8 µM (inactive)
GI50 [10]: > 100 µM (inactive)
GI50 [11]: 76 µM (inactive)
GI50 [12]: 26.3 µM (inactive)
GI50 [13]: > 100 µM (inactive)
GI50 [14]: 61.1 µM (inactive)
GI50 [15]: > 100 µM (inactive)
GI50 [16]: 91.6 µM (inactive)
GI50 [20]: > 100 µM (inactive)
GI50 [18]: > 100 µM (inactive)
GI50 [19]: 51.5 µM (inactive)

Cc1cc(C)nc(SCC(=O)OC2CC(C)CCC2C(C)C)n1 (stereo not drawn)
GI50 [1]: 21.6 µM (inactive)
GI50 [2]: 22.6 µM (inactive)
GI50 [3]: 16.7 µM (inactive)
GI50 [4]: 34.3 µM (inactive)
GI50 [5]: 17.9 µM (inactive)
GI50 [7]: 19.1 µM (inactive)
GI50 [8]: 33.4 µM (inactive)
GI50 [9]: 16.7 µM (inactive)
GI50 [10]: 17.9 µM (inactive)
GI50 [11]: 23.6 µM (inactive)
GI50 [12]: 16.7 µM (inactive)
GI50 [13]: 21.6 µM (inactive)
GI50 [14]: 18.8 µM (inactive)
GI50 [15]: 22.3 µM (inactive)
GI50 [16]: 16.8 µM (inactive)
GI50 [20]: 21.8 µM (inactive)
GI50 [18]: 23.9 µM (inactive)
GI50 [19]: 19.6 µM (inactive)

CCOC(=O)CCC(NC(=O)c1ccc(Nc2nc3ccc(C(F)(F)F)cc3nc2-c2ccccc2)cc1)C(=O)OCC (stereo not drawn)
GI50 [1]: > 100 µM (inactive)
GI50 [2]: > 100 µM (inactive)
GI50 [3]: 16.2 µM (inactive)
GI50 [4]: > 100 µM (inactive)
GI50 [5]: > 100 µM (inactive)
GI50 [6]: 28 µM (inactive)
GI50 [7]: > 63.4 µM (inactive)
GI50 [8]: 24.4 µM (inactive)
GI50 [9]: 19.7 µM (inactive)
GI50 [10]: 21.6 µM (inactive)
GI50 [11]: 83 µM (inactive)
GI50 [12]: 22.1 µM (inactive)
GI50 [13]: 23.1 µM (inactive)
GI50 [14]: 56.6 µM (inactive)
GI50 [15]: > 92.9 µM (inactive)
GI50 [16]: 49 µM (inactive)
GI50 [17]: 45.5 µM (inactive)
GI50 [20]: 19.1 µM (inactive)
GI50 [19]: 17.5 µM (inactive)

COC1=CC2C(c3cc4ccccc4n3S(=O)(=O)c3ccccc3)CC1CN2C(=O)OCc1ccccc1 (stereo not drawn)
GI50 [1]: 33.9 µM (inactive)
GI50 [2]: 20.5 µM (inactive)
GI50 [3]: 16.4 µM (inactive)
GI50 [4]: 29.2 µM (inactive)
GI50 [5]: 18.9 µM (inactive)
GI50 [6]: 36.5 µM (inactive)
GI50 [7]: 16.4 µM (inactive)
GI50 [8]: 23.8 µM (inactive)
GI50 [9]: 19.6 µM (inactive)
GI50 [10]: 20 µM (inactive)
GI50 [11]: 24.2 µM (inactive)
GI50 [13]: 19.8 µM (inactive)
GI50 [14]: 29.5 µM (inactive)
GI50 [15]: 18.2 µM (inactive)
GI50 [16]: 14.4 µM (inactive)
GI50 [20]: 23.6 µM (inactive)
GI50 [18]: 28.8 µM (inactive)
GI50 [19]: 34.8 µM (inactive)

Reference: ChEMBL document CHEMBL1201862, “PubChem BioAssay data set” (2004)
